Results reported in patent US20040132696A1, “Therapeutic agents for pigmentation and melanocyte growth inhibitory agents” (priority 1999, published 2004).
Read-outs that look alike come from different tables or passages of the source.

Legend:
Format in all cases: cell-based
[1] = test system: normal human epidermal melanocytes (NHEM); assay: Growth inhibition of cultured human melanocytes (cell count by Coulter Counter); details: Melanocyte, 144 h, read-out: inhibitory effect against the proliferation of melanocytes
Protocol: (§1) Melanocytes: normal human epidermal melanocytes (NHEM:KM-4009, Kurabo Industries).
(§2) Melanocytes were cultured at 2×10^5 cells/well in MGM3 (Melanocyte Growth Medium 3, Takara Shuzo) used as a culture medium. Keratinocytes were cultured at 1×10^5 cells/well in KGM2 (Keratinocyte Growth Medium 2, Takara Shuzo) used as a culture medium. To each well was added 22-oxacalcitriol or calcitriol at a final concentration of 10^−7 M and cultivation was continued. On days 3 and 6 after the addition, the number of cells was determined by a Coulter Counter.

[2] = test system: normal human epidermal keratinocytes (HEKn); assay: Growth inhibition of cultured human keratinocytes (cell count by Coulter Counter); details: Keratinocyte, 144 h, read-out: inhibition against keratinocytes
Protocol: Keratinocytes: normal human epidermal keratinocytes (HEKn:C-001-5C, Kurabo Industries).
as §2

Human melanocytes = assay: Tritiated thymidine (3[H]-TdR) uptake by cultured human melanocytes; details: 10^-7 M, day 1
Protocol: as §1
Human melanocytes were cultured at 5×10^5 cells/well in MGM3 used as a culture medium, and 22-oxacalcitriol or calcitriol was added to each well at a final concentration of 10^−7 M to determine tritiated thymidine (^3[H]-TdR) uptake by cells in a liquid scintillation counter on days 1, 3 and 5 after the addition.

[3] = 10^-7 M, day 6, average of 5 experiments

Structure (SMILES) | inhibition at 0.1 µM [1] | inhibition at 0.1 µM [2] | decrease in tritiated thymidine uptake (Human melanocytes) | inhibition at 0.1 µM [1, 3] | inhibition at 0.1 µM [2, 3]
C=C1/C(=C\C=C2/CCC[C@]3(C)[C@@H]([C@H](C)CCCC(C)(C)O)CC[C@@H]23)C[C@@H](O)C[C@@H]1O [calcitriol, 1α,25-dihydroxyvitamin D3] | ≥ 30% | 40% | 50% | – | –
C=C1/C(=C\C=C2/CCC[C@]3(C)[C@@H]([C@H](C)OCCC(C)(C)O)CC[C@@H]23)C[C@@H](O)C[C@@H]1O [22-oxacalcitriol] | – | – | – | ≥ 30% | 25%
